According to patent US20250064874A1, “Mushroom Spore, Cannabinoid, and Specified Compositions” (priority 2023, published 2025):

Key:
[1] = test system: neuronal cultures exposed to glutamate; conditions: in vitro, isolated or synthetic CBD; cited from earlier work
[2] = isolated or synthetic CBD; cited from earlier work
[3] = test system: shin splits, sciatica tight muscles, aching back pains, and circulation issues; experiment: Example 12 case report: soaking body in magnesium sulfate with or without Reishi spore powder; assay type: in vivo, human; conditions: body soaked 30 minutes in 20 gallons of hot water, 1 cup Magnesium sulfate
Procedure: The person tried soaking body in 1 cup of Magnesium sulfate with 20 gallons of hot water for 30 minutes. […] After 72 hours, the person soaked their body in 20 gallons of hot water comprising 1 cup of Magnesium sulfate in combination with 1000 mg of Reishi Mushroom Spore Powder, for 30 minutes.

| Structure (SMILES) | prevention of toxicity of glutamate [1] | difference between treated animals and placebo [2] | improvement noticed (pain relief, sleep, mood, circulation, dexterity) [3] |
| --- | --- | --- | --- |
| C=C(C)[C@@H]1CCC(C)=C[C@H]1c1c(O)cc(CCCCC)cc1O [CBD, cannabidiol] | could be prevented to some extent | failed to find a difference | – |
| O=S(=O)([O-])[O-].[Mg+2] [Magnesium sulfate] | – | – | slight improvement |
